Results reported in the NIST ThermoML archive (doi:10.1021/je800224k).
Numbers after ± are expanded uncertainties.

`CCn1cc[n+](C)c1.F[P-](F)(F)(F)(F)F` [1-ethyl-3-methylimidazolium hexafluorophosphate] gave a mass density (352.7 K, 60000 kPa, Liquid, Bellows volumetry) of 1456 ± 13 kg/m3, a mass density (352.7 K, 70000 kPa, Liquid, Bellows volumetry) of 1461 ± 13 kg/m3 and a mass density (352.7 K, 80000 kPa, Liquid, Bellows volumetry) of 1466 ± 13 kg/m3. The mass density (352.7 K, 90000 kPa, Liquid, Bellows volumetry) was 1471 ± 13 kg/m3, the mass density (352.7 K, 100000 kPa, Crystal, Bellows volumetry) was 1562 ± 10 kg/m3 and the mass density (352.7 K, 110000 kPa, Crystal, Bellows volumetry) was 1566 ± 10 kg/m3. The mass density (352.7 K, 120000 kPa, Crystal, Bellows volumetry) was 1570 ± 10 kg/m3, the mass density (352.7 K, 130000 kPa, Crystal, Bellows volumetry) was 1573 ± 10 kg/m3 and the mass density (352.7 K, 140000 kPa, Crystal, Bellows volumetry) was 1576 ± 10 kg/m3. For the same compound, the mass density (352.7 K, 150000 kPa, Crystal, Bellows volumetry) was 1580 ± 10 kg/m3, the mass density (352.7 K, 160000 kPa, Crystal, Bellows volumetry) was 1583 ± 10 kg/m3 and the mass density (352.7 K, 170000 kPa, Crystal, Bellows volumetry) was 1586 ± 10 kg/m3. It also gave a mass density (352.7 K, 180000 kPa, Crystal, Bellows volumetry) of 1589 ± 10 kg/m3, a mass density (352.7 K, 190000 kPa, Crystal, Bellows volumetry) of 1592 ± 10 kg/m3 and a mass density (352.7 K, 200000 kPa, Crystal, Bellows volumetry) of 1595 ± 10 kg/m3. For the same compound, the mass density (353.15 K, 101.33 kPa, Liquid, Vibrating tube method) was 1421.8 ± 13 kg/m3, the mass density (372.8 K, 10000 kPa, Liquid, Bellows volumetry) was 1410 ± 12 kg/m3 and the mass density (372.8 K, 20000 kPa, Liquid, Bellows volumetry) was 1416 ± 13 kg/m3. It also gave a mass density (372.8 K, 30000 kPa, Liquid, Bellows volumetry) of 1423 ± 13 kg/m3, a mass density (372.8 K, 40000 kPa, Liquid, Bellows volumetry) of 1428 ± 13 kg/m3 and a mass density (372.8 K, 50000 kPa, Liquid, Bellows volumetry) of 1434 ± 13 kg/m3. The mass density (372.8 K, 60000 kPa, Liquid, Bellows volumetry) was 1439 ± 13 kg/m3, the mass density (372.8 K, 70000 kPa, Liquid, Bellows volumetry) was 1445 ± 13 kg/m3 and the mass density (372.8 K, 80000 kPa, Liquid, Bellows volumetry) was 1450 ± 13 kg/m3. For the same compound, the mass density (372.8 K, 90000 kPa, Liquid, Bellows volumetry) was 1455 ± 13 kg/m3, the mass density (372.8 K, 100000 kPa, Liquid, Bellows volumetry) was 1460 ± 13 kg/m3 and the mass density (372.8 K, 110000 kPa, Liquid, Bellows volumetry) was 1465 ± 13 kg/m3. For the same compound, the mass density (372.8 K, 120000 kPa, Liquid, Bellows volumetry) was 1470 ± 13 kg/m3, the mass density (372.8 K, 130000 kPa, Liquid, Bellows volumetry) was 1474 ± 13 kg/m3 and the mass density (372.8 K, 140000 kPa, Liquid, Bellows volumetry) was 1479 ± 13 kg/m3. It also gave a mass density (372.8 K, 150000 kPa, Liquid, Bellows volumetry) of 1483 ± 13 kg/m3, a mass density (372.8 K, 160000 kPa, Liquid, Bellows volumetry) of 1488 ± 13 kg/m3 and a mass density (372.8 K, 170000 kPa, Liquid, Bellows volumetry) of 1492 ± 13 kg/m3. For the same compound, the mass density (372.8 K, 180000 kPa, Liquid, Bellows volumetry) was 1497 ± 13 kg/m3, the mass density (372.8 K, 190000 kPa, Liquid, Bellows volumetry) was 1501 ± 13 kg/m3 and the mass density (372.8 K, 200000 kPa, Liquid, Bellows volumetry) was 1505 ± 13 kg/m3. It also gave a mass density (373.15 K, 101.33 kPa, Liquid, Vibrating tube method) of 1404.9 ± 12 kg/m3, a mass density (392.9 K, 10000 kPa, Liquid, Bellows volumetry) of 1393 ± 12 kg/m3 and a mass density (392.9 K, 20000 kPa, Liquid, Bellows volumetry) of 1400 ± 12 kg/m3. It also gave a mass density (392.9 K, 30000 kPa, Liquid, Bellows volumetry) of 1406 ± 12 kg/m3, a mass density (392.9 K, 40000 kPa, Liquid, Bellows volumetry) of 1412 ± 12 kg/m3 and a mass density (392.9 K, 50000 kPa, Liquid, Bellows volumetry) of 1418 ± 13 kg/m3. The mass density (392.9 K, 60000 kPa, Liquid, Bellows volumetry) was 1424 ± 13 kg/m3, the mass density (392.9 K, 70000 kPa, Liquid, Bellows volumetry) was 1429 ± 13 kg/m3 and the mass density (392.9 K, 80000 kPa, Liquid, Bellows volumetry) was 1435 ± 13 kg/m3. It also gave a mass density (392.9 K, 90000 kPa, Liquid, Bellows volumetry) of 1440 ± 13 kg/m3.
